US20230104477A1, “USE OF DEHYDROASCORBIC ACID AGAINST NEMATODE INFECTION IN PLANTS” (Universiteit Gent, priority 2019, published 2023)

What was measured:
[1] = system: sugar beet plants; test: Root and shoot growth in uninfected sugar beet plants after foliar spray; type: in vivo, Beta vulgaris cv. Amarok
Protocol: Sugar beet—seeds of cv. Amarok were germinated on moist tissue for 4-5 days at 25° C. For longer experiments seedlings were transplanted to polyvinyl-chloride (PVC) tubes containing fine soil particles. All experiments were conducted in a plant growth room at 25° C., with a 16/8 h day/night regime. The plants were fertilized by supplying Hoagland solution as a source of nutrients 3 times a week.
Reduced Ascorbic acid (AA, 20 mM), dehydroascorbic acid (DHA, 20 mM), ascorbate oxidase (AO, 20 U/ml), methyl jasmonate (MeJA, 100 μM), aminooxyacetic acid (AoA, 12.5 mM), diethyldithiocarbamic acid (DIECA, 100 μM) and ethephon (100 μM) were purchased from Sigma and dissolved in water (except MeJA that was first dissolved in a drop of ETOH) to attain the indicated concentration.
For foliar application, all chemicals were dissolved in water and 0.02% (v/v) of Tween20 as a surfactant was added prior to spraying on aerial portions of the rice plants. Control plants were sprayed with distilled water containing 0.02% Tween20. Eight plants per treatment were sprayed until run-off with 6.5 mL of solution (at 24 h prior to nematode inoculation, in cases where infected plants were used). The substrate was covered to avoid direct contact with the roots and/or nematodes.

[2] = system: Phenylalanine ammonia lyase (PAL); test: PAL activity measurements in treated rice plants; type: in vivo; conditions: 20 mM DHA foliar spray; for PAL-activity in galls in comparison with uninfected root tips: M. graminicola infected
Protocol: PAL activity measurements—14 days old rice plants were foliar sprayed with 20 mM DHA and 1 day later, plants were inoculated with Meloidogyne graminicola nematodes (Mg+) or mock inoculated (Mg−). Three or seven days after inoculation, samples were collected. Both galls and systemic tissue (shoots) were collected. Samples were flash-frozen and ground under liquid nitrogen. Per sample, 100 mg of material was used to execute PAL-activity measurement according to Camacho-Cristobal et al. (2002). PAL was assayed by measuring the formation of trans-cinnamic acid at 290 nm. Samples were dissolved in 800 μl of 50 mM sodium phosphate as assay buffer containing 2% (w/v) poly-vinylpolypyrrolidone (PVPP), 2 mM EDTA, 18 mM-mercaptoetanol and 0.1% (v/v) Triton X-100. The homogenate was centrifuged at 8000 rpm, 4° C. for 10 min. In different 2 ml tubes, 135 μl of reaction buffer, 50 μl of 5 mM of L-phenlyalanine, and 20 μl of supernatant were mixed and absorbance at 290 nm was measured before incubation at 40° C. for 30 minutes. Then, 10 μl of hydrochloric acid was added and measurement was again done at the same wavelength. The assay was done with 4 biological replicates, which each consisted of pooled material of 4 plants.

[3] = two-week old sugar beet, foliar spray, seven days later, effect not statistically significant

## O=C1O[C@H]([C@@H](O)CO)C(=O)C1=O [DHA, (5R)-5-[(1S)-1,2-dihydroxyethyl]furan-2,3,4(5H)-trione]
[1]; sugar beet, foliar spray DHA 20 mM, throughout the experiment
  general appearance of plants: looked more vigorous
[1]; two-week old sugar beet, foliar spray (DHA 20 mM, AO 20 U/mL), seven days later, vs water control
  root length: significantly longer roots
[1]; [3]
  fresh root weight: positively affected
  shoot length: positively affected
[2]; 3 dpi
  PAL-activity in systemic shoot tissues of infected versus uninfected plants: strongly enhanced
  PAL-activity in galls in comparison with uninfected root tips: strongly enhanced
[2]; 7 dpi
  PAL-activity in systemic shoot tissues of infected versus uninfected plants: strongly enhanced
  PAL-activity in galls in comparison with uninfected root tips: strongly enhanced
